Among the data in BindingDB's records for doi:10.1016/0014-2999(89)90363-4 (Novo Industri, 1989) are Ki values, retold here.

Molecules are shown by their SMILES. Several values for one entry are separate records, joined by “and”; a condition that tells them apart may be missing. Identical values can stand only once. Counter-ions that a name gives are not always drawn.

Among the targets are D(2) dopamine receptor (Rattus norvegicus, UniProt P61169); Histamine H1 receptor (Rattus norvegicus, UniProt P31390); D(1A) dopamine receptor (Rattus norvegicus, UniProt P18901).
Assay [1] concerns the target T1, Muscarinic acetylcholine receptor M2 (Rattus norvegicus, UniProt P10980).
T1 sequence (P10980 whole entry): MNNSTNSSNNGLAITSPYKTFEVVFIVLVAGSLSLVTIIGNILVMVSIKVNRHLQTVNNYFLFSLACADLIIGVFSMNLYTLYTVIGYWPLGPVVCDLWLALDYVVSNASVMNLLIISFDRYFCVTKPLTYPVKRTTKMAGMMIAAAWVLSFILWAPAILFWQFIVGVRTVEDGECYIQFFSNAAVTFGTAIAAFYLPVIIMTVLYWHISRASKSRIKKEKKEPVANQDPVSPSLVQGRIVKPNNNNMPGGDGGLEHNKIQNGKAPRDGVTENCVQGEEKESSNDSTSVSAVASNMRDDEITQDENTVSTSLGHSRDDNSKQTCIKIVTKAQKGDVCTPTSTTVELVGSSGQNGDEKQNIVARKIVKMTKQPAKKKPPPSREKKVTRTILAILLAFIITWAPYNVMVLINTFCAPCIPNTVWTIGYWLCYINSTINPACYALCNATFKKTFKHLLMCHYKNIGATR

For assay [2], the target named is Beta-1 adrenergic receptor (Rattus norvegicus, UniProt P18090).
Sequence of Beta-1 adrenergic receptor (P18090 whole entry): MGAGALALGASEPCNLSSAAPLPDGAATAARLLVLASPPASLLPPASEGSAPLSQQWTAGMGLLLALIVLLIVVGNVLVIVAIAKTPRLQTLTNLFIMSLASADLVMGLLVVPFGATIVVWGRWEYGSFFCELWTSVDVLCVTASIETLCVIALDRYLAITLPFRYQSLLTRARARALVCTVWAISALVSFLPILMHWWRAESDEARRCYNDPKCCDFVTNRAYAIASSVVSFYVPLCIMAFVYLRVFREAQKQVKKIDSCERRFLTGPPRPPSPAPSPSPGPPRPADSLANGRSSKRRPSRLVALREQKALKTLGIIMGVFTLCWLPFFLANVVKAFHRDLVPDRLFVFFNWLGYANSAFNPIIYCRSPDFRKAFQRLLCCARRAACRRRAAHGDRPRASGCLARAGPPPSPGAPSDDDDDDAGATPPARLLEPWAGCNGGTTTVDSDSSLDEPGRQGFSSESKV
Assay [3] concerns the target T2, Alpha-2C adrenergic receptor (Rattus norvegicus, UniProt P22086).
T2 sequence (P22086 whole entry): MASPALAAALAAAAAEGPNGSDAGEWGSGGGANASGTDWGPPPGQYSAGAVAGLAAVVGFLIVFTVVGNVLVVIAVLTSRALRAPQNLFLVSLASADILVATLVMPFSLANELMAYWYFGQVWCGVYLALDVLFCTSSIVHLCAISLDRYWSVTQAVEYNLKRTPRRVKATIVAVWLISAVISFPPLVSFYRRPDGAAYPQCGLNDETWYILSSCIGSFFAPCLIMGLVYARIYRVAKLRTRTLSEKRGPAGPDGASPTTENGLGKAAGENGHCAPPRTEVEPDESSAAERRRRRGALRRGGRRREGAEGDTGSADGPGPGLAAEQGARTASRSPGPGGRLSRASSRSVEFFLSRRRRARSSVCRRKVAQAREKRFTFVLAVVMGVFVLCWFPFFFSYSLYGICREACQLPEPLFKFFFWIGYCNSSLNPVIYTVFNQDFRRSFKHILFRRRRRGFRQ

Assay [4] has as its target T3, 5-hydroxytryptamine receptor 1A (Rattus norvegicus, UniProt P19327).
T3 sequence (P19327 whole entry): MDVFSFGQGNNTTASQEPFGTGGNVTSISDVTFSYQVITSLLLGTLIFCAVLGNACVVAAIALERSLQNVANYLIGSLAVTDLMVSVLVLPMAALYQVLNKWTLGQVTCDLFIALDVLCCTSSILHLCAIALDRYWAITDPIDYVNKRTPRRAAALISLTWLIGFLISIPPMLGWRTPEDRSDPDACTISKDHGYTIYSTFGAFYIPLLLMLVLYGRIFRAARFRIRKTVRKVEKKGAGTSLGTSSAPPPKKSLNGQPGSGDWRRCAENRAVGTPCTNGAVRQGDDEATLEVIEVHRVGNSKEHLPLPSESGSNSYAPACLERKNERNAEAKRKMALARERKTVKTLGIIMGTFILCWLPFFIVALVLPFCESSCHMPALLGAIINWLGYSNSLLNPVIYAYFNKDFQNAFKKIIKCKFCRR

Assay [5] addresses Gamma-aminobutyric acid receptor subunit alpha-1 (Rattus norvegicus, UniProt P62813).
Assay [6] has as its target Norepinephrine transporter (Rattus norvegicus, UniProt Q9JIA2).
In assay [7] the target is Sodium-dependent serotonin transporter (Rattus norvegicus, UniProt P31652).
Sequence of Sodium-dependent serotonin transporter (P31652 whole entry): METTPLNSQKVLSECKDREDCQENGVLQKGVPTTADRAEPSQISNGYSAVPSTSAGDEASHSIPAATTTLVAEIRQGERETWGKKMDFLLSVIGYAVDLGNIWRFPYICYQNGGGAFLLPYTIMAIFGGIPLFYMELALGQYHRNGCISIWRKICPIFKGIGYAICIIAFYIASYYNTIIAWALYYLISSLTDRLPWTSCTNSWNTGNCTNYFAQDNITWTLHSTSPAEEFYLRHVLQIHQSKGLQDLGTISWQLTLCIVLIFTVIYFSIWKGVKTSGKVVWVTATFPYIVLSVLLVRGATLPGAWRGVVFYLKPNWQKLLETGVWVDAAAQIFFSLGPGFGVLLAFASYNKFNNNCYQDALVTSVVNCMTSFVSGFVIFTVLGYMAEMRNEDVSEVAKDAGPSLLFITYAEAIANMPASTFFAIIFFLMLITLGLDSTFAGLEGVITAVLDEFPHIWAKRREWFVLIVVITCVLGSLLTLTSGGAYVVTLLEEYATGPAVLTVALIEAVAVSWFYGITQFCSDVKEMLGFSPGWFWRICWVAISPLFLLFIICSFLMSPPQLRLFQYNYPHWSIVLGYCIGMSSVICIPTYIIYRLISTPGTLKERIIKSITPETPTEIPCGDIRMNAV
Assay [8] has as its target T4, Alpha-1A adrenergic receptor (Rattus norvegicus, UniProt P43140).
T4 sequence (P43140 whole entry): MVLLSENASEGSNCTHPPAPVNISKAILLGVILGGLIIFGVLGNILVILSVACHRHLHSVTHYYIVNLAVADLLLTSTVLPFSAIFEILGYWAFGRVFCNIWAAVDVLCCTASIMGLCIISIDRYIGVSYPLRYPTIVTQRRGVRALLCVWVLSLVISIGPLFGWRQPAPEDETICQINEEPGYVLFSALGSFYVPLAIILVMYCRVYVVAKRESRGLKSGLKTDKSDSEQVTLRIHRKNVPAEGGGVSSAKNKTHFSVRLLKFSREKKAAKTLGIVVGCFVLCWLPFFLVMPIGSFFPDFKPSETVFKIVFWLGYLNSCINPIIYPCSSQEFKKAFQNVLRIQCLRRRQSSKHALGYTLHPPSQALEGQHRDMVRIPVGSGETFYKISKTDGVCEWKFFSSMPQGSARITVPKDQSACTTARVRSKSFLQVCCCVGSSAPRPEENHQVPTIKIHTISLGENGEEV

Assay [9] concerns the target 5-hydroxytryptamine receptor 2A (Rattus norvegicus, UniProt P14842).

Sequence of D(2) dopamine receptor (P61169 whole entry): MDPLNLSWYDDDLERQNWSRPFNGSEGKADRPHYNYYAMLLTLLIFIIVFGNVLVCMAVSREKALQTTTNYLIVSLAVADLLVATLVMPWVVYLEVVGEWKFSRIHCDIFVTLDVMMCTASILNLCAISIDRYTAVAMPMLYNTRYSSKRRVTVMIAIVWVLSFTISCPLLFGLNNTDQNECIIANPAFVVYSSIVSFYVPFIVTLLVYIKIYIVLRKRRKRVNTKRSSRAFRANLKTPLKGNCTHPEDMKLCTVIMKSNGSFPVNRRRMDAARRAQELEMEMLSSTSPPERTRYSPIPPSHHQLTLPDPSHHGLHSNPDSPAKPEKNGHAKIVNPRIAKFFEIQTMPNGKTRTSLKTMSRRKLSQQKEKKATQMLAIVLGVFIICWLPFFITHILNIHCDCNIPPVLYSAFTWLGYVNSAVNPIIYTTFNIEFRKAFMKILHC
Sequence of Gamma-aminobutyric acid receptor subunit alpha-1 (P62813 whole entry): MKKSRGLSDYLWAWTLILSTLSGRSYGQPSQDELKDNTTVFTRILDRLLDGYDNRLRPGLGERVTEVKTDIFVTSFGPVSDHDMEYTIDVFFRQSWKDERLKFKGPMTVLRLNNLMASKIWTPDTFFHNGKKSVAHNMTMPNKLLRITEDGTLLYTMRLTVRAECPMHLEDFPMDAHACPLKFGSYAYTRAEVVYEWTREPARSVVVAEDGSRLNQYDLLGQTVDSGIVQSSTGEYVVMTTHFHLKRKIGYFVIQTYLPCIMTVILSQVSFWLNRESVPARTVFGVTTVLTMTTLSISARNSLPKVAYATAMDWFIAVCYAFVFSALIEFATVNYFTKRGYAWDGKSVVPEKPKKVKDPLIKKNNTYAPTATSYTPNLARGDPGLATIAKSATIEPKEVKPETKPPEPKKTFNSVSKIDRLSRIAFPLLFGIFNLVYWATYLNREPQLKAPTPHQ
Sequence of Histamine H1 receptor (P31390 whole entry): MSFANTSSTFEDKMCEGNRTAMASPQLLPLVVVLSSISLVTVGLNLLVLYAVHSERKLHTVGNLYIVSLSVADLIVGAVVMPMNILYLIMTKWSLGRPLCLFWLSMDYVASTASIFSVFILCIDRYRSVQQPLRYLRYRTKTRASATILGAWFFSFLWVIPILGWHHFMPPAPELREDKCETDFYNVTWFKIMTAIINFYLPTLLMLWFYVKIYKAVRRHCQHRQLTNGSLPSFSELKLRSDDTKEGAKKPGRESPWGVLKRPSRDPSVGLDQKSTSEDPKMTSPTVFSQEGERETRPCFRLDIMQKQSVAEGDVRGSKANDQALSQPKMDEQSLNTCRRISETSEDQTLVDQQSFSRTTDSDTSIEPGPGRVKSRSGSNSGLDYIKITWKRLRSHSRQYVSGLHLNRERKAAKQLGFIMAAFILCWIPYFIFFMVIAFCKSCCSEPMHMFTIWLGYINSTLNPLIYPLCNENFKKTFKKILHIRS
Sequence of D(1A) dopamine receptor (P18901 whole entry): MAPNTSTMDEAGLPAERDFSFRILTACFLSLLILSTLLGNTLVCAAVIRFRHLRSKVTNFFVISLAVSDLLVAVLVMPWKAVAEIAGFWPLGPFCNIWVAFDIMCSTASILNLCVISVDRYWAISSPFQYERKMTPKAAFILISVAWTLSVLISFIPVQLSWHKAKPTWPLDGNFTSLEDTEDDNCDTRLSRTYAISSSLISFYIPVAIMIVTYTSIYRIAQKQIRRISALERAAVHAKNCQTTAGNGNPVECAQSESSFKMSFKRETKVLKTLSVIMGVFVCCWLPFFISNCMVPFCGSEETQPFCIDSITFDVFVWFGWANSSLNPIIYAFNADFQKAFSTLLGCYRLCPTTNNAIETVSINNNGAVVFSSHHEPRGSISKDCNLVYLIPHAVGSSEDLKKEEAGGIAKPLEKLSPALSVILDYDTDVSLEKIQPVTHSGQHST
Sequence of 5-hydroxytryptamine receptor 2A (P14842 whole entry): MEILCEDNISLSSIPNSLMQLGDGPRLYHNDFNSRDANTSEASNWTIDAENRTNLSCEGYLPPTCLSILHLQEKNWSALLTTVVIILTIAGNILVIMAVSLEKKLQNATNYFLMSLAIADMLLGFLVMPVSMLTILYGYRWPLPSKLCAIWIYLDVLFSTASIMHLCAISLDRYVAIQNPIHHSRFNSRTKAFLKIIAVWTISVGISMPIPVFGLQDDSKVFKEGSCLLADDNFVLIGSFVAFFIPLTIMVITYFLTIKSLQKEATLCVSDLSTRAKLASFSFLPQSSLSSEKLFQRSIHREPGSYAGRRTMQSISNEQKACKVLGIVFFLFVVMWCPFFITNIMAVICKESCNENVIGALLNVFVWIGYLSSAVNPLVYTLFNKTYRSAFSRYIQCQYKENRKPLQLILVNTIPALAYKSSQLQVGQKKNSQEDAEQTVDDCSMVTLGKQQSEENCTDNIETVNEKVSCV

For the compound `CN(C)CCCN1c2ccccc2CCc2ccccc21`, the inhibition constant (Ki) is 0.942 µM on D(2) dopamine receptor; 2.3 µM in [1]; above 10 µM in assay [2]; 5.7 µM in assay [3]; above 10 µM in assay [4]; 0.002 µM at Histamine H1 receptor. For the same compound, the figures for the inhibition constant Ki (on D(1A) dopamine receptor; in [5]) were 3 µM and above 10 µM, respectively.

For the compound `COc1ccc2c(c1)CN(C)CC2c1ccc(Cl)c(Cl)c1` (stereo not drawn), affinity in assay [6] was put at a Ki of 0.0157 µM.

As for `COC(=O)[C@@H](c1ccccc1)[C@@H]1CCCCN1`, the Ki in [6] amounted to 0.103 µM; in [7], 1 µM.

Consider `NCCc1ccc(O)c(O)c1`, for which the Ki in [6] and in [7] was 1 µM throughout.

`CN1Cc2c(N)cccc2[C@H](c2ccccc2)C1` [(+/-)-2-Methyl-4-phenyl-1,2,3,4-tetrahydro-isoquinolin-8-ylamine]: the Ki was above 10 µM at D(2) dopamine receptor; above 10 µM in assay [1]; above 10 µM in assay [2]; 0.0112 µM in assay [6]; above 10 µM in [3]; above 10 µM in assay [4]. Further, the Ki was 0.035 µM on Histamine H1 receptor, above 10 µM on D(1A) dopamine receptor, above 10 µM in assay [5] and above 10 µM in [8].

Regarding `CC(NC(C)(C)C)C(=O)c1cccc(Cl)c1` (stereo not drawn) [BUPROPION HYDROCHLORIDE], the inhibition constant (Ki) is above 10 µM on D(2) dopamine receptor; above 10 µM in [1]; above 10 µM in assay [2]; 0.94 µM in assay [6]; above 10 µM in [3]; above 10 µM at D(1A) dopamine receptor. This compound came in with an inhibitory constant (Ki) in assay [8] above 10 µM.

As to `CN(C)CCCC1(c2ccc(F)cc2)OCc2cc(C#N)ccc21` (stereo not drawn) [CITALOPRAM HYDROBROMIDE], the Ki (at D(2) dopamine receptor; in assay [1]; in assay [2]; in assay [3]; in [4]; at D(1A) dopamine receptor) was above 10 µM each time. The Ki in assay [5] and in assay [8] was above 10 µM throughout.

Compound `O[C@]1(c2ccc(Cl)cc2)c2ccccc2C2=NCCN21` [Mazanor] registered a Ki in assay [6] of 0.008 µM.

As for `NCC(O)c1ccc(O)c(O)c1` (stereo not drawn) [Noradrenaline,(+)], the inhibition constant (Ki) came to 0.25 µM in [6] and 1 µM in assay [7].

With `Fc1ccc(C(OCCN2CCN(CCCc3ccccc3)CC2)c2ccc(F)cc2)cc1` [Vanoxerine], the Ki was 0.27 µM on D(2) dopamine receptor; above 10 µM in assay [1]; above 10 µM in assay [2]; 7 µM in assay [3]; 3.6 µM in assay [4]; 0.018 µM at Histamine H1 receptor. Further, the Ki at D(1A) dopamine receptor was 1 µM; in assay [9], 0.189 µM; in assay [5] it was > 10 µM and 8 µM; in assay [8], 3.5 µM.

As to `NCCc1c[nH]c2ccc(O)cc12` [[3H]-5-HT], the affinity in assay [6], expressed as Ki, was 1 µM.

Take `C[C@H](N)Cc1ccccc1` [beta-aminopropylbenzene]: in assay [6], the inhibitory constant (Ki) is 0.059 µM and 0.058 µM.

The term Ki denotes a measure of affinity in units of concentration, obtained from inhibition or displacement. A higher Ki goes with lower affinity.
